We go through eleven molecules from patent publication US9150575B2, “Piperidinylpyrazolopyridine derivative” (Daiichi Sankyo Company, Limited, priority 2012, dated 2015).

Molecules are shown by their SMILES.

The assay addresses T1, LCAT (Homo sapiens, UniProt P04180).
T1 construct: The obtained fraction was dialyzed against phosphate-buffered saline (pH 7.4) and used as an enzyme source and an acceptor for LCAT; from tissue; host or cells: HDL3 fraction (1.125<specific gravity<1.210 g/mL) of plasma from a healthy person
T1 sequence (P04180 25-440): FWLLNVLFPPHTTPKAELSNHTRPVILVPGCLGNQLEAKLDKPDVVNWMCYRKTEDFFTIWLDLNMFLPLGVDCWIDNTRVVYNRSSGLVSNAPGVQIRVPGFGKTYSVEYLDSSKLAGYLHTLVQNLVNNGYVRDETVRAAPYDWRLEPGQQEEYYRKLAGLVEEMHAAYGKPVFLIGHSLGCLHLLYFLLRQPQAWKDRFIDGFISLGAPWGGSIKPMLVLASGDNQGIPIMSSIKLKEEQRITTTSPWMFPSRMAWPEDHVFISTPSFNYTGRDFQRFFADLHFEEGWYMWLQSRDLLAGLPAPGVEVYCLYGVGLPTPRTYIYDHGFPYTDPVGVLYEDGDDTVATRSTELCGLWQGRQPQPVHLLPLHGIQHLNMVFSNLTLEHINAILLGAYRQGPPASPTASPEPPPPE
The assay is described as follows: LCAT Activity Measurement (In Vitro). In kind it is biochemical. As to conditions: EC50 of LCAT activation; HDL3 fraction from plasma of a healthy person as enzyme source and acceptor; [14C]cholesterol; 37° C., approximately 16 hours. The essentials:
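Human plasma HDL3 (1 mg/mL, PBS pH 7.4) served as enzyme and acceptor with [14C]cholesterol, 0.5 mM DTNB, 12.5 mM mercaptoethanol and 0.6% BSA; compounds in DMSO, incubated ~16 h at 37 °C. Cholesterol oleate radioactivity quantified after extraction and TLC; EC50 of activation fitted relative to no-drug control.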

As to `O=C1CC(O)(C(F)(F)F)c2c(C3CCN(c4cnc(C5CC5)nc4)CC3)n[nH]c2N1` (centres unmarked) [Example 66, 3-[1-(2-Cyclopropylpyrimidin-5-yl)piperidin-4-yl]-4-hydroxy-4-(trifluoromethyl)-1,4,5,7-tetrahydro-6H-pyrazolo[3,4-b]pyridin-6-one], the EC50 amounted to 68 nM.
In the case of `CN(C)c1ncc(N2CCC(c3n[nH]c4c3C(O)(C(F)(F)F)CC(=O)N4)CC2)cn1` (centres unmarked) [Example 67, 3-{1-[2-(Dimethylamino)pyrimidin-5-yl]piperidin-4-yl}-4-hydroxy-4-(trifluoromethyl)-1,4,5,7-tetrahydro-6H-pyrazolo[3,4-b]pyridin-6-one], it took 330 nM to reach a half-maximal effect (EC50).
For `CN(C)c1ccc(N2CCC(c3n[nH]c4c3C(O)(C(F)(F)F)CC(=O)N4)CC2)cn1` (centres unmarked) [Example 68, 3-{1-[6-(Dimethylamino)pyridin-3-yl]piperidin-4-yl}-4-hydroxy-4-(trifluoromethyl)-1,4,5,7-tetrahydro-6H-pyrazolo[3,4-b]pyridin-6-one], a half-maximal response (EC50) required 760 nM.
`CN(C)C(=O)c1cc(N2CCC(c3n[nH]c4c3C(O)(C(F)(F)F)CC(=O)N4)CC2)ccc1C(F)(F)F` (centres unmarked) [Example 69, 5-{4-[4-Hydroxy-6-oxo-4-(trifluoromethyl)-4,5,6,7-tetrahydro-1H-pyrazolo[3,4-b]pyridin-3-yl]piperidin-1-yl}-N,N-dimethyl-2-(trifluoromethyl)benzamide] returned a half-maximal effective concentration (EC50) of 190 nM.
Molecule `O=C1CC(O)(C(F)(F)F)c2c(C3CCN(c4ccc(F)cc4)CC3)n[nH]c2N1` (centres unmarked) [Example 70, 3-[1-(4-Fluorophenyl)piperidin-4-yl]-4-hydroxy-4-(trifluoromethyl)-1,4,5,7-tetrahydro-6H-pyrazolo[3,4-b]pyridin-6-one] came in with an EC50 of 300 nM.
As to `O=C1CC(O)(C(F)(F)F)c2c(C3CCN(c4nc(C5CC5)no4)CC3)n[nH]c2N1` (centres unmarked) [Example 71, 3-[1-(3-Cyclopropyl-1,2,4-oxadiazol-5-yl)piperidin-4-yl]-4-hydroxy-4-(trifluoromethyl)-1,4,5,7-tetrahydro-6H-pyrazolo[3,4-b]pyridin-6-one], the concentration for a half-maximal effect (EC50) stood at 520 nM.
For the molecule `CC(C)(C)c1ncc(N2CCC(c3n[nH]c4c3C(O)(C(F)(F)F)CC(=O)N4)CC2)cn1` (centres unmarked) [Example 72, 3-[1-(2-tert-Butylpyrimidin-5-yl)piperidin-4-yl]-4-hydroxy-4-(trifluoromethyl)-1,4,5,7-tetrahydro-6H-pyrazolo[3,4-b]pyridin-6-one], the EC50 was determined as 23 nM.
`CCc1ccc(N2CCC(c3n[nH]c4c3C(O)(C(F)(F)F)CC(=O)N4)CC2)nc1` (centres unmarked) [Example 73, 3-[1-(5-Ethylpyridin-2-yl)piperidin-4-yl]-4-hydroxy-4-(trifluoromethyl)-1,4,5,7-tetrahydro-6H-pyrazolo[3,4-b]pyridin-6-one] came in with an EC50 of 83 nM.
`O=C1CC(O)(C(F)(F)F)c2c(C3CCN(c4ccc(Br)cn4)CC3)n[nH]c2N1` (centres unmarked) [Example 74, 3-[1-(5-Bromopyridin-2-yl)piperidin-4-yl]-4-hydroxy-4-(trifluoromethyl)-1,4,5,7-tetrahydro-6H-pyrazolo[3,4-b]pyridin-6-one] yielded an EC50 of 140 nM.
With `CC(C)c1cc(N2CCC(c3n[nH]c4c3C(O)(C(F)(F)F)CC(=O)N4)CC2)nc(C(C)C)n1` (centres unmarked) [Example 75, 3-{1-[2,6-di(Propan-2-yl)pyrimidin-4-yl]piperidin-4-yl}-4-hydroxy-4-(trifluoromethyl)-1,4,5,7-tetrahydro-6H-pyrazolo[3,4-b]pyridin-6-one], the EC50 worked out at 220 nM.
With `O=C1CC(O)(C(F)(F)F)c2c(C3CCN(c4ccc(OC(F)(F)F)cn4)CC3)n[nH]c2N1` (centres unmarked) [Example 76, 4-Hydroxy-3-{1-[5-(trifluoromethoxy)pyridin-2-yl]piperidin-4-yl}-4-(trifluoromethyl)-1,4,5,7-tetrahydro-6H-pyrazolo[3,4-b]pyridin-6-one] the figure was 18 nM.

The EC50 is the concentration at which the effect is half-maximal. A higher EC50 goes with a need for much substance.
